Key:
[1] = tested on: hiPSC-CMs (iCell-Cardiomyocytes^2); assay: MEA impedance (cytotoxicity readout) in hiPSC-CMs; details: for effect on impedance: all concentrations tested, up to 96 h
[2] = cited from earlier work; for Free Cmax: free therapeutic Cmax in humans, ref FDA-approved drug packages, PharmaPendium

With `Cc1cn(-c2cc(NC(=O)c3ccc(C)c(Nc4nccc(-c5cccnc5)n4)c3)cc(C(F)(F)F)c2)cn1` [Nilotinib] the “Imp (impedance), % change from baseline” value ([1]; 0.01 µM, 2h) was -2±3%, the “Imp (impedance), % change from baseline” value ([1]; 0.01 µM, 24h) was -14±3% and the “Imp (impedance), % change from baseline” value ([1]; 0.01 µM, 48h) was -4±4%. The “Imp (impedance), % change from baseline” value ([1]; 0.01 µM, 72h) was -4±15%, the “Imp (impedance), % change from baseline” value ([1]; 0.01 µM, 96h) was -3±15% and the “Imp (impedance), % change from baseline” value ([1]; 0.1 µM, 2h) was -2±3%. The “Imp (impedance), % change from baseline” value ([1]; 0.1 µM, 24h) was -12±3%, the “Imp (impedance), % change from baseline” value ([1]; 0.1 µM, 48h) was 4±10% and the “Imp (impedance), % change from baseline” value ([1]; 0.1 µM, 72h) was -6±4%. The “Imp (impedance), % change from baseline” value ([1]; 0.1 µM, 96h) was -1±5%, the “Imp (impedance), % change from baseline” value ([1]; 0.3 µM, 2h) was -1±3% and the “Imp (impedance), % change from baseline” value ([1]; 0.3 µM, 24h) was -11±5%. For the same compound, the “Imp (impedance), % change from baseline” value ([1]; 0.3 µM, 48h) was 3±7%, the “Imp (impedance), % change from baseline” value ([1]; 0.3 µM, 72h) was -2±4% and the “Imp (impedance), % change from baseline” value ([1]; 0.3 µM, 96h) was -1±5%. The “Imp (impedance), % change from baseline” value ([1]; 1 µM, 2h) was 4±7%, the “Imp (impedance), % change from baseline” value ([1]; 1 µM, 24h) was -8±6% and the “Imp (impedance), % change from baseline” value ([1]; 1 µM, 48h) was 13±17 %. The “Imp (impedance), % change from baseline” value ([1]; 1 µM, 72h) was 2±5 %, the “Imp (impedance), % change from baseline” value ([1]; 1 µM, 96h) was 4±14% and the effect on impedance [1] was “without relevant changes to impedance”. The “Free Cmax” value [2] was 100 nM.

For `N=C(N)c1ccc(OCCCCCOc2ccc(C(=N)N)cc2)cc1` [Pentamidine], the “Imp (impedance), % change from baseline” value ([1]; 0.1 µM, 2h) was 6±3%, the “Imp (impedance), % change from baseline” value ([1]; 0.1 µM, 24h) was -2±5% and the “Imp (impedance), % change from baseline” value ([1]; 0.1 µM, 48h) was -5±4%. The “Imp (impedance), % change from baseline” value ([1]; 0.1 µM, 72h) was -6±3%, the “Imp (impedance), % change from baseline” value ([1]; 0.1 µM, 96h) was 1±6% and the “Imp (impedance), % change from baseline” value ([1]; 0.3 µM, 2h) was 6±2%. The “Imp (impedance), % change from baseline” value ([1]; 0.3 µM, 24h) was -3±4%, the “Imp (impedance), % change from baseline” value ([1]; 0.3 µM, 48h) was -4±4% and the “Imp (impedance), % change from baseline” value ([1]; 0.3 µM, 72h) was -8±5%. The “Imp (impedance), % change from baseline” value ([1]; 0.3 µM, 96h) was -5±3%, the “Imp (impedance), % change from baseline” value ([1]; 1 µM, 2h) was 5±2% and the “Imp (impedance), % change from baseline” value ([1]; 1 µM, 24h) was -4±3%. The “Imp (impedance), % change from baseline” value ([1]; 1 µM, 48h) was -6±4%, the “Imp (impedance), % change from baseline” value ([1]; 1 µM, 72h) was -13±3% and the “Imp (impedance), % change from baseline” value ([1]; 1 µM, 96h) was -18±5%. The “Imp (impedance), % change from baseline” value ([1]; 3 µM, 72h) was -28±8 %, the “Imp (impedance), % change from baseline” value ([1]; 3 µM, 96h) was -42±9 % and the “Imp (impedance), % change from baseline” value ([1]; 3 µM, 2h) was 5±2%. The “Imp (impedance), % change from baseline” value ([1]; 3 µM, 24h) was -4±2%, the “Imp (impedance), % change from baseline” value ([1]; 3 µM, 48h) was -7±6% and the “Free Cmax” value [2] was 200 nM. For the same compound, the “exposures in patients (TdP cases after intravenous administration)” value ([2]; prolonged intravenous administration, ref Sands et al., 1985, Conte et al., 1986, Cordes et al., 2005) was 1 to 5 µM.

For `CC(C)(Sc1cc(C(C)(C)C)c(O)c(C(C)(C)C)c1)Sc1cc(C(C)(C)C)c(O)c(C(C)(C)C)c1` [Probucol], the “Imp (impedance), % change from baseline” value ([1]; 0.3 µM, 2h) was 2±2%, the “Imp (impedance), % change from baseline” value ([1]; 0.3 µM, 24h) was -4±4% and the “Imp (impedance), % change from baseline” value ([1]; 0.3 µM, 48h) was -3±7 %. For the same compound, the “Imp (impedance), % change from baseline” value ([1]; 0.3 µM, 72h) was -4±6%, the “Imp (impedance), % change from baseline” value ([1]; 0.3 µM, 96h) was -3±10% and the “Imp (impedance), % change from baseline” value ([1]; 1 µM, 2h) was -1±2%. For the same compound, the “Imp (impedance), % change from baseline” value ([1]; 1 µM, 24h) was -6±4%, the “Imp (impedance), % change from baseline” value ([1]; 1 µM, 48h) was -3±3% and the “Imp (impedance), % change from baseline” value ([1]; 1 µM, 72h) was -8±3%. The “Imp (impedance), % change from baseline” value ([1]; 1 µM, 96h) was -2±5%, the “Imp (impedance), % change from baseline” value ([1]; 3 µM, 72h) was -10±2% and the “Imp (impedance), % change from baseline” value ([1]; 3 µM, 96h) was -7±2%. For the same compound, the “Imp (impedance), % change from baseline” value ([1]; 3 µM, 2h) was -2±3%, the “Imp (impedance), % change from baseline” value ([1]; 3 µM, 24h) was -7±4% and the “Imp (impedance), % change from baseline” value ([1]; 3 µM, 48h) was -5±4%. The “Imp (impedance), % change from baseline” value ([1]; 10 µM, 2h) was -3±1%, the “Imp (impedance), % change from baseline” value ([1]; 10 µM, 24h) was -7±4% and the “Imp (impedance), % change from baseline” value ([1]; 10 µM, 48h) was -4±4%. The “Imp (impedance), % change from baseline” value ([1]; 10 µM, 72h) was -12±3% and the “Imp (impedance), % change from baseline” value ([1]; 10 µM, 96h) was -8±4%.

In the case of `CCN(CC)CCNC(=O)c1c(C)[nH]c(/C=C2\C(=O)Nc3ccc(F)cc32)c1C` [Sunitinib], the “Imp (impedance), % change from baseline” value ([1]; 0.03 µM, 2h) is reported as 5±4%, the “Imp (impedance), % change from baseline” value ([1]; 0.03 µM, 24h) is reported as -12±3% and the “Imp (impedance), % change from baseline” value ([1]; 0.03 µM, 48h) is reported as -8±6%. For the same compound, the “Imp (impedance), % change from baseline” value ([1]; 0.03 µM, 72h) was -8±4%, the “Imp (impedance), % change from baseline” value ([1]; 0.03 µM, 96h) was -4±4% and the “Imp (impedance), % change from baseline” value ([1]; 0.1 µM, 2h) was 6±3%. For the same compound, the “Imp (impedance), % change from baseline” value ([1]; 0.1 µM, 24h) was -10±4%, the “Imp (impedance), % change from baseline” value ([1]; 0.1 µM, 48h) was -7±4% and the “Imp (impedance), % change from baseline” value ([1]; 0.1 µM, 72h) was -5±3%. For the same compound, the “Imp (impedance), % change from baseline” value ([1]; 0.1 µM, 96h) was -2±3%, the “Imp (impedance), % change from baseline” value ([1]; 0.3 µM, 2h) was 5±6% and the “Imp (impedance), % change from baseline” value ([1]; 0.3 µM, 24h) was -7±3%. The “Imp (impedance), % change from baseline” value ([1]; 0.3 µM, 48h) was -3±5%, the “Imp (impedance), % change from baseline” value ([1]; 0.3 µM, 72h) was -3±2% and the “Imp (impedance), % change from baseline” value ([1]; 0.3 µM, 96h) was -3±3%. For the same compound, the “Imp (impedance), % change from baseline” value ([1]; 1 µM, 2h) was 12±7%, the “Imp (impedance), % change from baseline” value ([1]; 1 µM, 24h) was -9±6% and the “Imp (impedance), % change from baseline” value ([1]; 1 µM, 48h) was -7±7%. For the same compound, the “Imp (impedance), % change from baseline” value ([1]; 1 µM, 72h) was -8±7%, the “Imp (impedance), % change from baseline” value ([1]; 1 µM, 96h) was -5±6% and the effect on impedance [1] was “did not cause significant changes in the impedance signal”. For the same compound, the “Free Cmax” value [2] was 30 nM.

From paper PMC10364322, “Evaluation of chronic drug-induced electrophysiological and cytotoxic effects using human-induced pluripotent stem cell-derived cardiomyocytes (hiPSC-CMs)” (Frontiers in Pharmacology, 2023)
